For the first experiment, the target named is T1, PD-1/PD-L1 (Homo sapiens, UniProt Q9NZQ7).
T1 construct: Recombinant human PD-L1 protein (19-238) with a His-tag at the C-terminus; purchased AcroBiosystems PD1-H5229 (PD-L1); PD1-H5257 (PD-1)
T1 sequence (Q9NZQ7 19-238): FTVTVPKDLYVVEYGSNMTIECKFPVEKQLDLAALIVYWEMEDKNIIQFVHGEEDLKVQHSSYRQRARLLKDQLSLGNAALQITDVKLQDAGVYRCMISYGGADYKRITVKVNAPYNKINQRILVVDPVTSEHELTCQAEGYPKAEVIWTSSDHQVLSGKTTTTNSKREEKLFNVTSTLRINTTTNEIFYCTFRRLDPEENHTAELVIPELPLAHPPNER
Put plainly: PD-1/PD-L1 homogenous time-resolved fluorescence (HTRF) binding assay. The note with it: recombinant human PD-L1 (19-238) His-tag / human PD-1 (25-167) Fc tag, class symbols. Here is the method:
Resolved Fluorescence (HTRF) Binding Assay
The assays were conducted in a standard black 384-well polystyrene plate with a final volume of 20 μL. Inhibitors were first serially diluted in DMSO and then added to the plate wells before the addition of other reaction components. The final concentration of DMSO in the assay was 1%. The assays were carried out at 25° C. in the PBS buffer (pH 7.4) with 0.05% Tween-20 and 0.1% BSA. Recombinant human PD-L1 protein (19-238) with a His-tag at the C-terminus was purchased from AcroBiosy stems (PD1-H5229). Recombinant human PD-1 protein (25-167) with Fc tag at the C-terminus was also purchased from AcroBiosystems (PD1-H5257). PD-L1 and PD-1 proteins were diluted in the assay buffer and 10 μL was added to the plate well. Plates were centrifuged and proteins were preincubated with inhibitors for 40 min. The incubation was followed by the addition of […] of HTRF detection buffer supplemented with Europium cryptate-labeled anti-human IgG (PerkinElmer-AD0212) specific for Fc and anti-His antibody conjugated to SureLight®-Allophycocyanin (APC, PerkinElmer-AD0059H). After centrifugation, the plate was incubated at 25° C. for 60 min. Before reading on a PHERAstar FS plate reader (665 nm/620 nm ratio). Final concentrations in the assay were […] PD1, 10 nM PD-L1, 1 nM europium anti-human IgG and 20 nM anti-His-Allophycocyanin. IC50 determination was performed by fitting the curve of percent control activity versus the log of the inhibitor concentration using the GraphPad Prism 5.0 software.
Data obtained for the Example compounds using the PD-1/PD-L1 homogenous time-resolved fluorescence (HTRF) binding assay described in Example A is provided in Table 4.
By IC50 is commonly meant the concentration that inhibits the measured activity by half. For the molecule `Cc1c(NC(=O)c2nnc(CNCCO)s2)cccc1-c1cccc(NC(=O)c2nnc(CNCCO)s2)c1C` [Example 73, N,N′-(2,2′-dimethyl-[1,1′-biphenyl]-3,3′-diyl)bis(5-(((2-hydroxyethyl)amino)methyl)-1,3,4-thiadiazole-2-carboxamide)], the IC50 was below 25 nM.

For the molecule `NC(=O)CN1CCc2nc(C(=O)N3CCc4c(-c5cccc6c5CCN6C(=O)c5nc6c(s5)CN(CC(=O)O)CC6)cccc43)sc2C1` [Example 107, 2-(2-(1′-(5-(2-amino-2-oxoethyl)-4,5,6,7-tetrahydrothiazolo[5,4-c]pyridine-2-carbonyl)-[4,4′-biindoline]-1-carbonyl)-6,7-dihydrothiazolo[5,4-c]pyridin-5(4H)-yl)acetic acid], the half-maximal inhibitory concentration (IC50) is below 25 nM.

Turning to `Cc1nc(C(=O)Nc2cccc(-c3cccc(NC(=O)c4nc(C)c(CN5CCCC[C@H]5C(=O)O)s4)c3Cl)c2C)sc1CN1CCCC[C@H]1C(=O)O` [Example 54, (2S,2'S)-1,1′-(2,2′-(2-chloro-2′-methylbiphenyl-3,3′-diyl)bis(azanediyl)bis(oxomethylene)bis(4-methylthiazole-5,2-diyl))bis(methylene)dipiperidine-2-carboxylic acid], the IC50 is below 25 nM.

As for `CN(C)C(=O)CN1CCc2nc(C(=O)N3CCc4c(-c5cccc6c5CCN6C(=O)c5nc6c(s5)CN(CC(=O)O)CC6)cccc43)sc2C1` [Example 109, 2-(2-(1′-(5-(2-(dimethylamino)-2-oxoethyl)-4,5,6,7-tetrahydrothiazolo[5,4-c]pyridine-2-carbonyl)-[4,4′-biindoline]-1-carbonyl)-6,7-dihydrothiazolo[5,4-c]pyridin-5(4H)-yl)acetic acid], the IC50 was below 25 nM.

In the case of `Cc1c(NC(=O)c2nnc(C(C)N)o2)cccc1-c1cccc(NC(=O)c2nnc(C(C)N)o2)c1C` (centres unmarked) [Example 19, N,N′-(2,2′-dimethyl-[1,1′-biphenyl]-3,3′-diyl)bis(5-(1-aminoethyl)-1,3,4-oxadiazole-2-carboxamide)], the half-inhibitory concentration (IC50) lay within 25 to 100 nM.

With `Cc1nc(C(=O)Nc2cccc(-c3cccc4c3CCN4C(=O)c3nc(C)c(CN4CCCC[C@H]4C(=O)O)s3)c2C)sc1CN1CCCC[C@H]1C(=O)O` [Example 58, (S)-1-((2-(3-(1-(5-(((S)-2-carboxypiperidin-1-yl)methyl)-4-methylthiazole-2-carbonyl)indolin-4-yl)-2-methylphenylcarbamoyl)-4-methylthiazol-5-yl)methyl)piperidine-2-carboxylic acid], the half-inhibitory concentration (IC50) is below 25 nM.

On to `Cc1c(NC(=O)c2nc3c(s2)CNCC3)cc(F)cc1-c1cccc2c1CCN2C(=O)c1nc2c(s1)CNCC2` [Example 95, N-(5-fluoro-2-methyl-3-(1-(4,5,6,7-tetrahydrothiazolo[5,4-c]pyridine-2-carbonyl)indolin-4-yl)phenyl)-4,5,6,7-tetrahydrothiazolo[5,4-c]pyridine-2-carboxamide], for which the IC50 was below 25 nM.

`Cc1c(Nc2nccc3cc(CN4CCCCC4C(=O)O)cnc23)cccc1-c1cccc(Nc2nccc3cc(CN4CCCCC4C(=O)O)cnc23)c1C` (centres unmarked) [Example 155, 1,1′-((((2,2′-dimethyl-[1,1′-biphenyl]-3,3′-diyl)bis(azanediyl))bis(1,7-naphthyridine-8,3-diyl))bis(methylene))bis(piperidine-2-carboxylic acid)]: the half-maximal inhibitory concentration (IC50) is below 25 nM.

Take `Cc1c(-c2cccc(N(C)C(=O)c3nc4c(s3)CNCC4)c2C)cccc1N(C)C(=O)c1nc2c(s1)CNCC2` [Example 23, N,N′-(2,2′-dimethyl-[1,1′-biphenyl]-3,3′-diyl)bis(N-methyl-4,5,6,7-tetrahydrothiazolo[5,4-c]pyridine-2-carboxamide)]: the IC50 lay within 100 to 200 nM.

For the molecule `COC(=O)NCCNCc1cnc2c(Nc3cccc(-c4cccc(Nc5nccc6cc(CNCCNC(=O)OC)cnc56)c4C)c3C)nccc2c1` [Example 158, dimethyl ((((((2,2′-dimethyl-[1,1′-biphenyl]-3,3′-diyl)bis(azanediyl))bis(1,7-naphthyridine-8,3-diyl))bis(methylene))bis(azanediyl))bis(ethane-2,1-diyl))dicarbamate], the concentration for half-maximal inhibition (IC50) is below 25 nM.

Consider `Cc1nc(C(=O)N2CCc3c(-c4cccc5c4CCN5C(=O)c4nc(C)c(CN5CCCC[C@H]5C(=O)O)s4)cccc32)sc1CN1CCCC[C@H]1C(=O)O` [Example 56, (2S,2'S)-1,1′-(2,2′-(4,4′-biindoline-1,1′-diylbis(oxomethylene))bis(4-methylthiazole-5,2-diyl))bis(methylene)dipiperidine-2-carboxylic acid], for which the half-inhibitory concentration (IC50) was below 25 nM.

As to `Cc1c(Nc2nccc3cc(CNC4([C@H](C)O)CC4)cnc23)cccc1-c1cccc(Nc2nccc3cc(CNC4([C@H](C)O)CC4)cnc23)c1C` [Example 157, (1S,1'S)-1,1′-((((((2,2′-dimethyl-[1,1′-biphenyl]-3,3′-diyl)bis(azanediyl))bis(1,7-naphthyridine-8,3-diyl))bis(methylene))bis(azanediyl))bis(cyclopropane-1,1-diyl))bis(ethan-1-ol)], the concentration for half-maximal inhibition (IC50) is below 25 nM.

In the case of `Cc1nc(C(=O)Nc2cccc(-c3cccc(NC(=O)c4nc(C)c(CN[C@H](C(=O)O)C5CCOCC5)s4)c3Cl)c2C)sc1CN[C@H](C(=O)O)C1CCOCC1` [Example 55, (2S,2'S)-2,2′-(2,2′-(2-chloro-2′-methylbiphenyl-3,3′-diyl)bis(azanediyl)bis(oxomethylene)bis(4-methylthiazole-5,2-diyl))bis(methylene)bis(azanediyl)bis(2-(tetrahydro-2H-pyran-4-yl)acetic acid)], the IC50 was below 25 nM.

For the molecule `NC(=O)CN1CCc2nc(C(=O)Nc3cccc(-c4cccc(NC(=O)c5nc6c(s5)CN(CC(N)=O)CC6)c4Cl)c3Cl)sc2C1` [Example 90, N,N′-(2,2′-dichloro-[1,1′-biphenyl]-3,3′-diyl)bis(5-(2-amino-2-oxoethyl)-4,5,6,7-tetrahydrothiazolo[5,4-c]pyridine-2-carboxamide)], the 50% inhibitory concentration (IC50) was below 25 nM.

For the molecule `O=C(Nc1cccc(-c2cccc(NC(=O)c3ncc(CN[C@H](C(=O)O)C4CCOCC4)s3)c2Cl)c1Cl)c1ncc(CN[C@H](C(=O)O)C2CCOCC2)s1` [Example 71, (2S,2'S)-2,2′-((((((2,2′-dichloro-[1,1′-biphenyl]-3,3′-diyl)bis(azanediyl))bis(carbonyl))bis(thiazole-2,5-diyl))bis(methylene))bis(azanediyl))bis(2-(tetrahydro-2H-pyran-4-yl)acetic acid)], the half-maximal inhibitory concentration (IC50) was below 25 nM.

With `Cc1c(-c2cccc(N(C)Cc3nc4ccc(N)cc4s3)c2C)cccc1N(C)Cc1nc2c(s1)CNCC2` [Example 22, N3-((6-aminobenzo[d]thiazol-2-yl)methyl)-N3,N3′,2,2′-tetramethyl-N3′-((4,5,6,7-tetrahydrothiazolo[5,4-c]pyridin-2-yl)methyl)-[1,1′-biphenyl]-3,3′-diamine], the half-maximal inhibitory concentration (IC50) is above 200 nM.

As to `COP(=O)(CN1CCc2nc(C(=O)N3CCc4c(-c5cccc6c5CCN6C(=O)c5nc6c(s5)CN(CP(=O)(OC)OC)CC6)cccc43)sc2C1)OC` [Example 123, dimethyl ((2-(1′-(5-((dimethoxyphosphoryl)methyl)-4,5,6,7-tetrahydrothiazolo[5,4-c]pyridine-2-carbonyl)-[4,4′-biindoline]-1-carbonyl)-6,7-dihydrothiazolo[5,4-c]pyridin-5(4H)-yl)methyl)phosphonate], the IC50 is below 25 nM.

On to `Cc1c(NC(=O)c2nnc([C@H](C)N3CCCC[C@H]3C(=O)O)o2)cccc1-c1cccc(NC(=O)c2nnc([C@H](C)N3CCCC[C@H]3C(=O)O)o2)c1C` [Example 16, (2S,2'S)-1,1′-((1S,1'S)-((((2,2′-dimethyl-[1,1′-biphenyl]-3,3′-diyl)bis(azanediyl))bis(carbonyl))bis(1,3,4-oxadiazole-5,2-diyl))bis(ethane-1,1-diyl))bis(piperidine-2-carboxylic acid)], for which the IC50 was below 25 nM.

Consider `Cc1c(Nc2nccc3cc(CNCC(=O)N(C)C)cnc23)cccc1-c1cccc(Nc2nccc3cc(CNCC(F)(F)F)cnc23)c1C` [Example 146, 2-(((8-((2,2′-dimethyl-3′-((3-(((2,2,2-trifluoroethyl)amino)methyl)-1,7-naphthyridin-8-yl)amino)-[1,1′-biphenyl]-3-yl)amino)-1,7-naphthyridin-3-yl)methyl)amino)-N,N-dimethylacetamide], for which the half-inhibitory concentration (IC50) is below 25 nM.

Staying with this experiment, now noted: recombinant human PD-L1 (19-238) His-tag / human PD-1 (25-167) Fc tag, numeric values.
On to `Cc1c(NC(=O)c2nc3c(s2)CN(C)CC3)cccc1-c1cccc(NC(=O)c2nc3c(s2)CN(C)CC3)c1C` [Example 2, N,N′-(2,2′-dimethyl-[1,1′-biphenyl]-3,3′-diyl)bis(5-methyl-4,5,6,7-tetrahydrothiazolo[5,4-c]pyridine-2-carboxamide)], for which the half-maximal inhibitory concentration (IC50) is 0.74 nM.

(Values after patent publication US20210040118A1, “IMMUNOMODULATORS, COMPOSITIONS AND METHODS THEREOF” (BETTA PHARMACEUTICALS CO., LTD, priority 2018, published 2021).)
